Laboratory results taken from US10508098B2, “Quinazolinones and azaquinazolinones as ubiquitin-specific protease 7 inhibitors” (FORMA Therapeutics, Inc., priority 2015, dated 2019).

biological target: USP7 (Homo sapiens (Human), UniProt Q93009); test: USP7 Assays A and B (Ubiquitin-Rhodamine 110 assay); type: biochemical; conditions: USP7 (208-1102) 6*His; substrate Ub-Rh110 25 nM; assays A and B not distinguished
Description: Example 9: USP7 Assay A (Ubitquin-Rhodamine 110 Assay)
Each assay was performed in a final volume of 15 μL in assay buffer containing 20 mM Tris-HCl (pH 8.0, (1M Tris-HCl, pH 8.0 solution; Corning 46-031-CM)), 1 mM GSH (L-Glutathione reduced; Sigma #G4251), 0.03% BGG (0.22 μM filtered, Sigma, #G7516-25G), and 0.01% Triton X-100 (Sigma, #T9284-10L). Nanoliter quantities of either an 8-point or 10-point, 3-fold serial dilution in DMSO was pre-dispensed into assay plates (Perkin Elmer, ProxiPlate-384 F Plus, #6008269) for a final test concentration range of either 25 μM to 11 nM or 25 μM to 1.3 nM, respectively. The final concentration of the enzyme (USP7, construct USP7 (208-1102) 6*His, Viva Biotech) in the assay was 62.5 pM. Final substrate (Ub-Rh110; Ubiquitin-Rhodamine 110, R&D Systems #U-555) concentration was 25 nM with [Ub-Rh110]<<Km. 5 μL of 2× enzyme was added to assay plates (pre-stamped with compound) preincubated with USP7 for 30 min and then 5 μL of 2×Ub-Rh110 was added to assay plates. Plates were incubated stacked for 20 min at room temperature before 5 μL of stop solution (final concentration of 10 mM citric acid in assay buffer (Sigma, #251275-500G)). Fluorescence was read on the Envision (Excitation at 485 nm and Emission at 535 nm; Perkin Elmer) or on the PheraSTAR (Excitation at 485 nm and Emission at 535 nm; BMG Labtech).
Example 10: USP7 Assay B (Ubitquin-Rhodamine 110 Assay)
Each assay was performed in a final volume of 20 μL in assay buffer containing 20 mM Tris-HCl (pH 8.0, (1M Tris-HCl, pH 8.0 solution; Corning 46-031-CM)), 2 mM CaCl2 (1M Calcium Chloride solution; Sigma #21114) 1 mM GSH (L-Glutathione reduced; Sigma #G4251), 0.01% Prionex (0.22 μM filtered, Sigma #G-0411), and 0.01% Triton X-100. Stock compound solutions were stored at −20° C. as 10 mM in DMSO. Up to 1 month prior to the assay, 2 mM test compounds were pre-dispensed into assay plates (Black, low volume; Corning #3820) and frozen at −20° C. Prestamped assay plates were allowed to come to room temperature on the day of the assay. For the screen, 100 nL of 2 mM was pre-dispensed for a final screening concentration of 10 μM (DMSO(fc)=0.5%). For follow-up studies, 250 nL of an 8-point, 3-fold serial dilution in DMSO was pre-dispensed into assay plates for a final test concentration of 25 μM-11 nM (1.25% DMSO final concentration). Unless otherwise indicated, all follow-up assays were run on triplecate plates. Enzyme (USP7, construct Met (208-1102)-TEV-6*His; Viva Q93009-1) concentration and incubation times were optimized for the maximal signal-to-background while maintaining initial velocity conditions at a fixed substrate concentration. The final concentration of the enzyme in the assay was either 75 pM or 250 pM. Final substrate (Ub-Rh110; Ubiquitin-Rhodamine 110, R&D Systems (biotechne)#U-555) concentration was 25 nM with [Ub-Rh110]<<Km. Pre-stamped with compounds were either not preincubated or preincubated with USP7 between 30 to 120 min prior to the addition of 10 μL of 2×Ub-Rh110 to compound plates. Plates were incubated stacked for either 23 or 45 min at room temperature before fluorescence was read on the Envision (Excitation at 485 nm and Emission at 535 nm; Perkin Elmer) or on the PheraSTAR (Excitation at 485 nm and Emission at 535 nm; BMG Labtech).
Data from USP7 Assays A and B were reported as percent inhibition (inh) compared with control wells based on the following equation: % inh=1−((FLU−AveLow)/(AveHigh−AveLow)) where FLU=measured Fluorescence. AveLow=average Fluorescence of no enzyme control (n=16). AveHigh=average Fluorescence of DMSO control (n=16). IC50 values were determined by curve fitting of the standard 4 parameter logistic fitting algorithm included in the Activity Base software package: IDBS XE Designer Model205. Data is fitted using the Levenburg Marquardt algorithm.

Chain of USP7 (Q93009 208-1102): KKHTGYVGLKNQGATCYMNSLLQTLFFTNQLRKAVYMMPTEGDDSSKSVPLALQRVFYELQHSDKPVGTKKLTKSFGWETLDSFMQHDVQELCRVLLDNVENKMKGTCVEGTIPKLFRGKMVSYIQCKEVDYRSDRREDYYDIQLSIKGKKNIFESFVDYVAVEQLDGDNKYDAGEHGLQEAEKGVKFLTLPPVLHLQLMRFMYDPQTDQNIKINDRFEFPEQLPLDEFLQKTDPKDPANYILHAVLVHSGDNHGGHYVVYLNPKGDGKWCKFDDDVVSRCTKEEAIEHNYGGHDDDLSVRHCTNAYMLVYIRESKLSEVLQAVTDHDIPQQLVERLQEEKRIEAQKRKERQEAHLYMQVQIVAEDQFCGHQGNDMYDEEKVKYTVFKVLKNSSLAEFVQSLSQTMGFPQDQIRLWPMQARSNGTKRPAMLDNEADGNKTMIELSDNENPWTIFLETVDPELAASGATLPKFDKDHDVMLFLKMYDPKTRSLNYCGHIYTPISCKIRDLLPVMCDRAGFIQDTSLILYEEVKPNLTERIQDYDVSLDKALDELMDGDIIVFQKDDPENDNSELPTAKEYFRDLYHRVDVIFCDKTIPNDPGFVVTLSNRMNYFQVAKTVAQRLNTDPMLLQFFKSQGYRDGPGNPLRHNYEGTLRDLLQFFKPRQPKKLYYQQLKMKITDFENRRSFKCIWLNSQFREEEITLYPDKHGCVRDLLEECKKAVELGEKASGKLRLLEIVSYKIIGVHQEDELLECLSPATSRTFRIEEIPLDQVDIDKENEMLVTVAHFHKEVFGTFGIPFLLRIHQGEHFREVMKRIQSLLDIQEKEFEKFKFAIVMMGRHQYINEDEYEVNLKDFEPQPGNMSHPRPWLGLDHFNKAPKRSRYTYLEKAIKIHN

COc1ccc2c(=O)n(CC3(O)CCN(C(=O)CC(C)c4ccccc4)CC3)cnc2c1 (stereo not shown) [Compound I-1, 3-((4-hydroxy-1-(3-phenylbutanoyl)piperidin-4-yl)methyl)-7-methoxyquinazolin-4(3H)-one] and COc1ccc2c(=O)n(CC3(O)CCN(C(=O)C[C@@H](C)c4ccccc4)CC3)cnc2c1 [Compound I-5, (R)-3-((4-hydroxy-1-(3-phenylbutanoyl)piperidin-4-yl)methyl)-7-methoxyquinazolin-4(3H)-one] cannot be ordered by IC50: under 200 nM for the first, under 200 nM for the second.

Cc1cccc2c(=O)n(CC3(O)CCN(C(=O)CC(C)c4ccccc4)CC3)cnc12 (stereo not shown) [Compound I-2, 3-((4-hydroxy-1-(3-phenylbutanoyl)piperidin-4-yl)methyl)-8-methylquinazolin-4(3H)-one] and Cc1cccc2c(=O)n(CC3(O)CCN(C(=O)C[C@@H](C)c4ccccc4)CC3)cnc12 [Compound I-6, (R)-3-((4-hydroxy-1-(3-phenylbutanoyl)piperidin-4-yl)methyl)-8-methylquinazolin-4(3H)-one] cannot be ordered by IC50: under 200 nM for the first, under 200 nM for the second.

CC(CC(=O)N1CCC(O)(Cn2cnc3cc(N)ccc3c2=O)CC1)c1ccccc1 (stereo not shown) [Compound I-3, 7-amino-3-((4-hydroxy-1-(3-phenylbutanoyl)piperidin-4-yl)methyl)quinazolin-4(3H)-one] and CC(=O)Nc1ccc2c(=O)n(CC3(O)CCN(C(=O)CC(C)c4ccccc4)CC3)cnc2c1 (stereo not shown) [Compound I-4, N-(3-((4-hydroxy-1-(3-phenylbutanoyl)piperidin-4-yl)methyl)-4-oxo-3,4-dihydroquinazolin-7-yl)acetamide] cannot be ordered by IC50: under 200 nM for the first, under 200 nM for the second.

Compared with Cc1ccc2c(=O)n(CC3(O)CCN(C(=O)c4ccc5c(c4)CCN5Cc4ccccc4)CC3)cnc2c1 [Compound I-7, 3-((1-(1-benzylindoline-5-carbonyl)-4-hydroxypiperidin-4-yl)methyl)-7-methylquinazolin-4(3H)-one], O=C(c1ccccc1)N1CCC(O)(Cn2cnc3cc(-c4ccccc4)ccc3c2=O)CC1 [Compound I-8, 3-((1-benzoyl-4-hydroxypiperidin-4-yl)methyl)-7-phenylquinazolin-4(3H)-one] is higher in IC50: 1000 to 10000 nM for the first, over 10000 nM for the second. The first is the more potent here.

O=C(c1ccccc1)N1CCC(O)(Cn2cnc3c(-c4ccccc4)cccc3c2=O)CC1 [Compound I-9, 3-((1-benzoyl-4-hydroxypiperidin-4-yl)methyl)-8-phenylquinazolin-4(3H)-one] and O=C(c1ccc(F)cc1)N1CCC(O)(Cn2cnc3c(Oc4ccc(F)cc4)cccc3c2=O)CC1 [Compound I-10, 3-((1-(4-fluorobenzoyl)-4-hydroxypiperidin-4-yl)methyl)-8-(4-fluorophenoxy)quinazolin-4(3H)-one] fall in the same range of IC50: 1000 to 10000 nM for the first, 1000 to 10000 nM for the second.

First: CC(CC(=O)N1CCC(O)(Cn2cnc3ncccc3c2=O)CC1)c1ccccc1 (stereo not shown) [Compound I-11, 3-((4-hydroxy-1-(3-phenylbutanoyl)piperidin-4-yl)methyl)pyrido[2,3-d]pyrimidin-4(3H)-one]
Second: CC(CC(=O)N1CCC(O)(Cn2cnc3cccnc3c2=O)CC1)c1ccccc1 (stereo not shown) [Compound I-13, 3-((4-hydroxy-1-(3-phenylbutanoyl)piperidin-4-yl)methyl)pyrido[3,2-d]pyrimidin-4(3H)-one]
The IC50 of the first is higher: over 10000 nM for the first, 200 to 1000 nM for the second. The second is the more potent here.

CC(CC(=O)N1CCC(O)(Cn2cnc3cnccc3c2=O)CC1)c1ccccc1 (stereo not shown) [Compound I-12, 3-((4-hydroxy-1-(3-phenylbutanoyl)piperidin-4-yl)methyl)pyrido[3,4-d]pyrimidin-4(3H)-one] was tested, and the IC50 was 1000 to 10000 nM.
